Source: patent US9730940B2, “Purine inhibitors of human phosphatidylinositol 3-kinase delta” (priority 2012, dated 2017)

These molecules were tested against PI3K-alpha (Homo sapiens (Human), UniProt P42336) (assay: HTRF PI3K biochemical assay, alpha isoform). Details: ratio PI3K-alpha IC50 value/PI3K-delta IC50 value.
Text: HTRF PI3K Biochemical Assay to Measure Intrinsic Potency of Compound Inhibitors
The PI3-Kinase biochemical assays were developed to measure the intrinsic potency and compound dependent inhibition of the alpha, beta, delta, and gamma PI3K isoform enzymes. This assay was developed and further optimized from a kit produced by Upstate (Millipore catalog #33-047) and has been configured for HTS and SAR screening. Briefly, this procedure exploits the exquisite specificity and high affinity binding of enzyme reaction substrate phosphatidyl(3,4,5)triphosphate (PIP3) to the GRP1 pleckstrin homology (PH) domain to generate the signal. In the absence of PIP3, an HTRF (Homogeneous Time-Resolved Fluorescence energy transfer) complex is formed consisting of europium (Eu)-labeled anti-GST, GST tagged GRP1-PH domain, biotin-PIP3 and streptavidin conjugated APC. The native PIP3 produced by PI3-Kinase activity disrupts in a competitive manner the biotin-PIP3 from the PH domain, resulting in the loss of energy transfer (HTRF complex) and a decrease in the signal. The format of this assay is the same for all 4 isoforms of PI3K; the differences lie in the concentration of enzyme used to achieve robust assay window. The alpha, beta, and delta assays are run at 0.5, 1, and 0.3 nM enzymes and the gamma assay is run at 5 nM enzyme. The ATP concentration is 100 uM in the alpha, beta, and delta assays and 50 uM ATP in the gamma assay. All reactions are run at 5 uM PIP2.
Compounds are serially diluted (3-fold in 100% DMSO) across a 384-well polypropylene source plated from column 3 to column 12 and column 13 to column 22, to yield 10 concentration dose response for each test compound. Columns 1, 2, 23 and 24 contain either only DMSO or pharmacological known control inhibitor.
The PI3-Kinase biochemical assay was optimized using the HTRF kit provided by Upstate (Millipore). The assay kit contains six reagents: 1) 4× Reaction Buffer; 2) native PIP2 (substrate); 3) Stop (EDTA); 4) Detection Mix A (Streptavidin-APC); 5) Detection Mix B (Eu-labeled Anti-GST plus GST-tagged PH-domain); 6) Detection Mix C.
PI3Kinase Reaction Buffer is prepared by dilution the stock 1:4 with de-ionized water. […] Enzyme addition and compound pre-incubation are initiated by the addition of 1.25 ul of PI3K (at twice its final concentration) in the 1× reaction buffer to all wells using a BioRaptor. Plates are incubated at room temperature for 15 minutes. Reactions are initiated by addition of 1.25 ul of 2× substrate solution (PIP2 and ATP in 1× reaction buffer) using BioRaptor. Plates are incubated in humidified chamber at room temperature for one hour. Reactions are quenched by addition of 0.625 uL of stop solution to all wells using the BioRaptor. The quenched reactions are then processed to detect product formation by adding 0.625 uL of Detection Solution to all wells using the BioRaptor (Detection mix C, Detection Mix A, and Detection Mix B combined together in an 18:1:1 ratio prepared 2 hours prior to use).
The loss of the HTRF signal is due to the displacement of biotinylated-PIP3 from the PH domain by the PI3K-dependent conversion of PIP2 to PIP3. This loss of signal is nonlinear with respect to both increasing product and time. This non-linear detection will impact accuracy of IC50 calculations; therefore, there is a need for a correction factor to obtain more accurate IC50 values. This correction is derived from a PIP3 standard curve run in a separate assay plate. All data were calculated using the ratio of acceptor (APC) to donor (Europium) fluorescence in each well of the assay plate. […] An IC50 was then calculated fitting the % inhibition data to the equation: % inhibition=min+(Max−min)/1+([inhibitor]/IC50)^n) where min is the % inhibition […], max is the signal in DMSO control, and n is the Hill slope.

Sequence of PI3K-alpha (P42336 whole entry, looked up, canonical isoform): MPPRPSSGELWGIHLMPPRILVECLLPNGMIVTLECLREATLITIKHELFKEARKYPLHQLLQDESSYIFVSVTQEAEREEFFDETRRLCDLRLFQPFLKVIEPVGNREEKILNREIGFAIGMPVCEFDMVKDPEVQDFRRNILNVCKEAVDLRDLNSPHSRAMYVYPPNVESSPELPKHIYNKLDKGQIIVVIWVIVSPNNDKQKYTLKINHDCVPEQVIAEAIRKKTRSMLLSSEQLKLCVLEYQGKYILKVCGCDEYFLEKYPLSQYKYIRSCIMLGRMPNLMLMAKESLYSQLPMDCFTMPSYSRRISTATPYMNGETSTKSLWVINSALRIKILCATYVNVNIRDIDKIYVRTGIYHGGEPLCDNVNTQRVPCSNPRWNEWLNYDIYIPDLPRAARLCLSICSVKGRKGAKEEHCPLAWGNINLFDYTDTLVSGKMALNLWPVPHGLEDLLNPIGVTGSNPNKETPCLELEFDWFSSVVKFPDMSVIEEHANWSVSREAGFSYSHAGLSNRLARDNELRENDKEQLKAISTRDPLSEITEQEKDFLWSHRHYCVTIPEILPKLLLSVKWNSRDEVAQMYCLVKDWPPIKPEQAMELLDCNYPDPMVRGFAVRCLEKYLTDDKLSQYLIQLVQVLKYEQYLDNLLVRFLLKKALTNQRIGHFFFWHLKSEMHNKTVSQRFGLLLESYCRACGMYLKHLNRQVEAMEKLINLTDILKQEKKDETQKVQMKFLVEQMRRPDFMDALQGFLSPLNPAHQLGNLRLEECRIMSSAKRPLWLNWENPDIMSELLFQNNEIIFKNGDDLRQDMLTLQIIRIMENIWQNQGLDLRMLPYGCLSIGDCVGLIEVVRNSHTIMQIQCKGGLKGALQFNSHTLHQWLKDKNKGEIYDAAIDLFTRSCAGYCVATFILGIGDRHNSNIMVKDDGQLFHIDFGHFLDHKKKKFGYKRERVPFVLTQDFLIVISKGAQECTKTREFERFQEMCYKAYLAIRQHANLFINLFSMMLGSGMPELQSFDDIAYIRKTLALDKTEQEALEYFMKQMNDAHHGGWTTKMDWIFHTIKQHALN
Sequence of PI3K-alpha (P27986 whole entry partner, looked up, canonical isoform): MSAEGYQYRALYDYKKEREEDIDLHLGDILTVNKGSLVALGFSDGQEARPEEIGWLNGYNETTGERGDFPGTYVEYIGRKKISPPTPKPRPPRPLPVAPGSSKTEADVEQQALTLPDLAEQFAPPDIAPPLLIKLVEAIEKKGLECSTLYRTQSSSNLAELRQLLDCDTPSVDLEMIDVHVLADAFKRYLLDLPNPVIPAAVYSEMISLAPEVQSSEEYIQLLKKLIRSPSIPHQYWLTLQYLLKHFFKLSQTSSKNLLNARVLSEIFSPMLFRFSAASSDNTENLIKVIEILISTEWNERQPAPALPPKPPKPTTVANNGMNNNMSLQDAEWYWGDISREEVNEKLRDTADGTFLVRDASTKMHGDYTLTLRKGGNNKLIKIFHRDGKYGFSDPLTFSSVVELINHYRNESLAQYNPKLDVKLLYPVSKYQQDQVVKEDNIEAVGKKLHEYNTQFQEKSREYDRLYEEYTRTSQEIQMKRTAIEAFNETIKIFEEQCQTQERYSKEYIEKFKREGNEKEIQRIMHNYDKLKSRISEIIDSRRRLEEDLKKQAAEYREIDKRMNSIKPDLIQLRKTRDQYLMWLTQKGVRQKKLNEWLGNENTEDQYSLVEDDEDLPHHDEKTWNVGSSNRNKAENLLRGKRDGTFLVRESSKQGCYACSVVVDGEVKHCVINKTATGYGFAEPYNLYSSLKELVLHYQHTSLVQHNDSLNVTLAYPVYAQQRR

Q: Which “Relative Selectivity versus PI3Kalpha” value does the source give for Cn1c(-c2ccc(N3CCOCC3)nc2)nc2c(O[C@H]3CCN(C(=O)OC(C)(C)C)C3)ncnc21 [Compound 1-24, tert-butyl (3S)-3-{[9-methyl-8-(6-morpholin-4-ylpyridin-3-yl)-9H-purin-6-yl]oxy}pyrrolidine-1-carboxylate] here?
A: The value was over 2.

Q: How did the “Relative Selectivity versus PI3Kalpha” value turn out when CCn1c(N(C)C(C)C)nc2c(O[C@H]3CCN(C(=O)OC(C)(C)C)C3)ncnc21 [Compound 13-7, tert-butyl (3S)-3-({9-ethyl-8-[methyl(1-methylethyl)amino]-9H-purin-6-yl}oxy)pyrrolidine-1-carboxylate] was run?
A: The value was over 10.

Q: How did the “Relative Selectivity versus PI3Kalpha” value turn out when CCn1c(N(C)CCO)nc2c(O[C@H]3CCN(C(=O)OC(C)(C)C)C3)ncnc21 [Compound 13-2, tert-butyl (3S)-3-({9-ethyl-8-[(2-hydroxyethyl)(methyl)amino]-9H-purin-6-yl}oxy)pyrrolidine-1-carboxylate] was run?
A: Its value is over 10.

Q: CCn1c(-c2cnc(C)nc2)nc2c(O[C@H]3CCN(C(=O)c4cocn4)C3)ncnc21 [Compound 2-136, 9-ethyl-8-(2-methylpyrimidin-5-yl)-6-{[(3S)-1-(1,3-oxazol-4-ylcarbonyl)pyrrolidin-3-yl]oxy}-9H-purine] was tested. Which “Relative Selectivity versus PI3Kalpha” value did it give?
A: The value was over 10.

Q: With CCn1c(-c2cnn3c2CCCC3)nc2c(O[C@H]3CCN(C(=O)C(C)C)C3)ncnc21 [Compound 3-60, 9-ethyl-6-{[(3S)-1-(2-methylpropanoyl)pyrrolidin-3-yl]oxy}-8-(4,5,6,7-tetrahydropyrazolo[1,5-a]pyridin-3-yl)-9H-purine] as the molecule, how does the “Relative Selectivity versus PI3Kalpha” value read?
A: The value was over 10.

Q: With CCn1ncc(-c2nc3c(O[C@H]4CCN(C(=O)c5cnon5)C4)ncnc3n2C)c1C [Compound 2-29, 8-(1-ethyl-5-methyl-1H-pyrazol-4-yl)-9-methyl-6-{[(3S)-1-(1,2,5-oxadiazol-3-ylcarbonyl)pyrrolidin-3-yl]oxy}-9H-purine] as the molecule, how does the “Relative Selectivity versus PI3Kalpha” value read?
A: Its value is 1.

Q: How did the “Relative Selectivity versus PI3Kalpha” value turn out when CCn1ncc(-c2nc3c(O[C@H]4CCN(C(=O)c5ccnn5C(C)C)C4)ncnc3n2C)c1C [Compound 2-52, 8-(1-ethyl-5-methyl-1H-pyrazol-4-yl)-9-methyl-6-{[(3S)-1-{[1-(1-methylethyl)-1H-pyrazol-5-yl]carbonyl}pyrrolidin-3-yl]oxy}-9H-purine] was run?
A: The value was over 10.

Q: For CCn1ncc(-c2nc3c(O[C@H]4CCN(C(=O)c5ccncc5)C4)ncnc3n2C)c1C [Compound 2-64, 8-(1-ethyl-5-methyl-1H-pyrazol-4-yl)-9-methyl-6-{[(3S)-1-(pyridin-4-ylcarbonyl)pyrrolidin-3-yl]oxy}-9H-purine], which “Relative Selectivity versus PI3Kalpha” value is on record?
A: The value was over 10.

Q: With CCn1c(-c2cnc(C)nc2)nc2c(O[C@H]3CCN(C(=O)C4CC4C)C3)ncnc21 (stereo partly drawn) [Compound 2-108, 9-ethyl-6-({(3S)-1-[(2-methylcyclopropyl)carbonyl]pyrrolidin-3-yl}oxy)-8-(2-methylpyrimidin-5-yl)-9H-purine] as the molecule, how does the “Relative Selectivity versus PI3Kalpha” value read?
A: The value was over 10.

Q: Which “Relative Selectivity versus PI3Kalpha” value does the source give for CCn1ncc(-c2nc3c(O[C@H]4CCN(c5nncc6ccccc56)C4)ncnc3n2C)c1C [Compound 7-8, 1-[(3S)-3-{[8-(1-ethyl-5-methyl-1H-pyrazol-4-yl)-9-methyl-9H-purin-6-yl]oxy}pyrrolidin-1-yl]phthalazine] here?
A: Its value is over 10.

Q: How did the “Relative Selectivity versus PI3Kalpha” value turn out when CCn1c(N(C)CC(C)C)nc2c(O[C@H]3CCN(C(=O)OC(C)(C)C)C3)ncnc21 [Compound 13-1, tert-butyl (3S)-3-({9-ethyl-8-[methyl(2-methylpropyl)amino]-9H-purin-6-yl}oxy)pyrrolidine-1-carboxylate] was run?
A: Its value is over 10.

Q: How did the “Relative Selectivity versus PI3Kalpha” value turn out when CCC(=O)N1CC[C@H](Oc2ncnc3c2nc(-c2cnn(CC)c2C)n3CC(F)F)C1 [Compound 3-21, 9-(2,2-difluoroethyl)-8-(1-ethyl-5-methyl-1H-pyrazol-4-yl)-6-{[(3S)-1-propanoylpyrrolidin-3-yl]oxy}-9H-purine] was run?
A: The value was over 10.

Q: How did the “Relative Selectivity versus PI3Kalpha” value turn out when CCn1ncc(-c2nc3c(O[C@H]4CCN(C(=O)c5cncn5C)C4)ncnc3n2C)c1C [Compound 2-73] was run?
A: Its value is over 10.

Q: With CCn1ncc(-c2nc3c(O[C@H]4CCN(C(=O)c5cn(C)nn5)C4)ncnc3n2C)c1C [Compound 2-44, 8-(1-ethyl-5-methyl-1H-pyrazol-4-yl)-9-methyl-6-({(3S)-1-[(1-methyl-1H-1,2,3-triazol-4-yl)carbonyl]pyrrolidin-3-yl}oxy)-9H-purine] as the molecule, how does the “Relative Selectivity versus PI3Kalpha” value read?
A: Its value is 9.

Q: Which “Relative Selectivity versus PI3Kalpha” value does the source give for CCn1c(-c2cnc(C)nc2)nc2c(O[C@H]3CCN(C(=O)C4CC4(C)C)C3)ncnc21 (single isomer, unassigned) [Compound 2-127, 6-({(3S)-1-[S- or R-(2,2-dimethylcyclopropyl)carbonyl]pyrrolidin-3-yl}oxy)-9-ethyl-8-(2-methylpyrimidin-5-yl)-9H-purine] here?
A: Its value is over 10.

Q: How did the “Relative Selectivity versus PI3Kalpha” value turn out when CCn1ncc(-c2nc3c(S[C@H]4CCN(C(=O)OCC(C)C)C4)ncnc3n2C)c1C [Compound 10-9, (S)-isobutyl 3-((8-(1-ethyl-5-methyl-1H-pyrazol-4-yl)-9-methyl-9H-purin-6-yl)thio)pyrrolidine-1-carboxylate] was run?
A: The value was over 10.

Q: CCn1c(-c2cnc(C)nc2)nc2c(O[C@H]3CCN(C(=O)N(C)C4CC4)C3)ncnc21 [Compound 5-10, (3S)-N-cyclopropyl-3-{[9-ethyl-8-(2-methylpyrimidin-5-yl)-9H-purin-6-yl]oxy}-N-methylpyrrolidine-1-carboxamide] was tested. Which “Relative Selectivity versus PI3Kalpha” value did it give?
A: The value was over 10.

Q: With CCn1c(-c2cnc(C)nc2)nc2c(O[C@H]3CCN(C(=O)C4CCC4C)C3)ncnc21 (single isomer, unassigned) [Compound 2-117, 9-ethyl-6-({(3S)-1-[([(1R,2S) or (1R,2R) or (1S,2R) or (1S,2S)]-methylcyclobutyl)carbonyl]pyrrolidin-3-yl}oxy)-8-(2-methylpyrimidin-5-yl)-9H-purine] as the molecule, how does the “Relative Selectivity versus PI3Kalpha” value read?
A: The value was over 10.

Q: CCn1c(-c2cnc(C)nc2)nc2c(O[C@H]3CCN(C(=O)[C@@H]4CCC[C@H]4N)C3)ncnc21 [Compound 2-101, (1R,2R)-2-{[(3S)-3-{[9-ethyl-8-(2-methylpyrimidin-5-yl)-9H-purin-6-yl]oxy}pyrrolidin-1-yl]carbonyl}cyclopentanamine] was tested. Which “Relative Selectivity versus PI3Kalpha” value did it give?
A: The value was over 10.

Q: How did the “Relative Selectivity versus PI3Kalpha” value turn out when CCC1CN(C(=O)OCc2ccccc2)CC1Oc1ncnc2c1nc(-c1cnc(C)nc1)n2CC [Compound 1-45, [(3S,4R) and (3R,4S)]-benzyl 3-ethyl-4-{[9-ethyl-8-(2-methylpyrimidin-5-yl)-9H-purin-6-yl]oxy}pyrrolidine-1-carboxylate] was run?
A: The value was over 10.

Q: For CCn1ncc(-c2nc3c(O[C@H]4CCN(C(=O)c5cc(C)[nH]n5)C4)ncnc3n2C)c1C [Compound 2-75, 8-(1-ethyl-5-methyl-1H-pyrazol-4-yl)-9-methyl-6-({(3S)-1-[(5-methyl-1H-pyrazol-3-yl)carbonyl]pyrrolidin-3-yl}oxy)-9H-purine], which “Relative Selectivity versus PI3Kalpha” value is on record?
A: The value was 5.

Q: How did the “Relative Selectivity versus PI3Kalpha” value turn out when CCC(=O)N1CC[C@H](Oc2ncnc3c2nc(-c2ccc(Cl)nc2)n3C)C1 [Compound 3-17, 8-(6-chloropyridin-3-yl)-9-methyl-6-{[(3S)-1-propanoylpyrrolidin-3-yl]oxy}-9H-purine] was run?
A: Its value is over 10.

Q: How did the “Relative Selectivity versus PI3Kalpha” value turn out when CCn1c(-c2cnc(C)nc2)nc2c(O[C@H]3CCN(C(=O)N4CCC(CO)C4)C3)ncnc21 (stereo partly drawn) [Compound 5-18, (1-{[(3S)-3-{[9-ethyl-8-(2-methylpyrimidin-5-yl)-9H-purin-6-yl]oxy}pyrrolidin-1-yl]carbonyl}pyrrolidin-3-yl)methanol] was run?
A: Its value is over 10.
